# From patent US20260262643A1, “HERBICIDAL BENZOXAZINES” (FMC CORPORATION, priority 2022, published 2026)
# Legend:
# ducksalad = assay: Test B flooded paddy test; assay type: in vivo, Heteranthera limosa; settings: 250 g ai/ha, Flood, 13 days, 0 to 100 scale (0 no effect, 100 complete control)
# In short: (§1)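 Plants at the 2-leaf stage were flooded to 3 cm above the soil, and test compounds were applied directly into the paddy water, with that depth held throughout. After 13 days in a greenhouse, injury was rated visually against untreated controls on a 0–100 scale (100 = complete control).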
# soybean [1] = assay: Test A postemergence; assay type: in vivo, Glycine max
# In short: (§2)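 Loam/sand soil; pre-em directed soil spray at planting, post-em spray at 1–2 leaf (2–10 cm). Compound in non-phytotoxic solvent + surfactant. Greenhouse 10 d; visual injury vs untreated, 0 = no effect, 100 = complete control.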
# ryegrass, Italian [2] = assay: Test A preemergence; assay type: in vivo, Lolium multiflorum
# In short: as §2
# pigweed, palmer [3] = assay: Test A postemergence; assay type: in vivo, Amaranthus palmeri
# In short: as §2
# ragweed [4] = assay: Test A postemergence; assay type: in vivo, Ambrosia artemisiifolia
# In short: as §2
# soybean [5] = assay: Test A preemergence; assay type: in vivo, Glycine max
# In short: as §2
# ryegrass, Italian [6] = assay: Test A postemergence; assay type: in vivo, Lolium multiflorum
# In short: as §2
# oat, wild [7] = assay: Test A preemergence; assay type: in vivo, Avena fatua
# In short: as §2
# pigweed, palmer [8] = assay: Test A preemergence; assay type: in vivo, Amaranthus palmeri
# In short: as §2
# ragweed [9] = assay: Test A preemergence; assay type: in vivo, Ambrosia artemisiifolia
# In short: as §2
# blackgrass [10] = assay: Test A preemergence; assay type: in vivo, Alopecurus myosuroides
# In short: as §2
# goosegrass [11] = assay: Test A preemergence; assay type: in vivo, Eleusine indica
# In short: as §2
# corn [12] = assay: Test A postemergence; assay type: in vivo, Zea mays
# In short: as §2
# wheat [13] = assay: Test A postemergence; assay type: in vivo, Triticum aestivum
# In short: as §2
# wheat [14] = assay: Test A preemergence; assay type: in vivo, Triticum aestivum
# In short: as §2
# galium = assay: Test A postemergence; assay type: in vivo, Galium aparine
# In short: as §2
# foxtail, giant [15] = assay: Test A preemergence; assay type: in vivo, Setaria faberi
# In short: as §2
# sedge, umbrella = assay: Test B flooded paddy test; assay type: in vivo, Cyperus difformis; settings: 250 g ai/ha, Flood, 13 days, 0 to 100 scale (0 no effect, 100 complete control)
# In short: as §1
# barnyardgrass = assay: Test B flooded paddy test; assay type: in vivo, Echinochloa crus-galli; settings: 250 g ai/ha, Flood, 13 days, 0 to 100 scale (0 no effect, 100 complete control)
# In short: as §1
# corn [16] = assay: Test A preemergence; assay type: in vivo, Zea mays
# In short: as §2
# goosegrass [17] = assay: Test A postemergence; assay type: in vivo, Eleusine indica
# In short: as §2
# foxtail, giant [18] = assay: Test A postemergence; assay type: in vivo, Setaria faberi
# In short: as §2
# blackgrass [19] = assay: Test A postemergence; assay type: in vivo, Alopecurus myosuroides
# In short: as §2
# oat, wild [20] = assay: Test A postemergence; assay type: in vivo, Avena fatua
# In short: as §2
# kochia [21] = assay: Test A preemergence; assay type: in vivo, Bassia scoparia
# In short: as §2
# horseweed = assay: Test A postemergence; assay type: in vivo, Erigeron canadensis
# In short: as §2
# rice = assay: Test B flooded paddy test; assay type: in vivo, Oryza sativa; settings: 250 g ai/ha, Flood, 13 days, 0 to 100 scale (0 no effect, 100 complete control)
# In short: as §1
# kochia [22] = assay: Test A postemergence; assay type: in vivo, Bassia scoparia
# In short: as §2
# [23] = 125 g ai/ha, postemergence, 10 days, visual injury, 0 to 100 scale (0 no effect, 100 complete control)
# [24] = 500 g ai/ha, Postemergence, 0 to 100 scale
# [25] = 125 g ai/ha, visual injury after 10 days, 0 to 100 scale, 0 is no effect, 100 is complete control
# [26] = 500 g ai/ha, 0 to 100 scale (0 no effect, 100 complete control), 10 days
# [27] = 500 g ai/ha, postemergence, 10 days, visual injury, 0 to 100 scale (0 no effect, 100 complete control)
# [28] = 125 g ai/ha, postemergence, 10 days, 0 to 100 scale, 0 no effect, 100 complete control
smiles,measurement,setting,value
Cc1cccc2c1O[C@@H](C)CN2C(=O)c1cccc(-n2ncnc2C(C)C)c1 [Compound 56],"Plant response rating, Ducksalad",ducksalad,0
same,"Plant response rating, Soybean",soybean [1]; [23],0
same,"Plant response rating, Soybean",soybean [1]; [24],10
same,"Plant response rating, Ryegrass, Italian","ryegrass, Italian [2]; [25]",0
same,"Plant response rating, Ryegrass, Italian","ryegrass, Italian [2]; [26]",0
same,"Plant response rating, Pigweed, Palmer","pigweed, palmer [3]; [23]",0
same,"Plant response rating, Pigweed, Palmer","pigweed, palmer [3]; [24]",0
same,"Plant response rating, Ragweed",ragweed [4]; [23],0
same,"Plant response rating, Ragweed",ragweed [4]; [24],0
same,"Plant response rating, Soybean",soybean [5]; [25],0
same,"Plant response rating, Soybean",soybean [5]; [26],0
same,"Plant response rating, Ryegrass, Italian","ryegrass, Italian [6]; [23]",0
same,"Plant response rating, Ryegrass, Italian","ryegrass, Italian [6]; [24]",0
same,"Plant response rating, Oat, Wild","oat, wild [7]; [25]",0
same,"Plant response rating, Oat, Wild","oat, wild [7]; [26]",0
same,"Plant response rating, Pigweed, Palmer","pigweed, palmer [8]; [25]",0
same,"Plant response rating, Pigweed, Palmer","pigweed, palmer [8]; [26]",0
same,"Plant response rating, Ragweed",ragweed [9]; [25],0
same,"Plant response rating, Ragweed",ragweed [9]; [26],0
same,"Plant response rating, Blackgrass",blackgrass [10]; [25],0
same,"Plant response rating, Blackgrass",blackgrass [10]; [26],0
same,"Plant response rating, Goosegrass",goosegrass [11]; [25],0
same,"Plant response rating, Goosegrass",goosegrass [11]; [26],0
same,"Plant response rating, Corn",corn [12]; [23],0
same,"Plant response rating, Corn",corn [12]; [24],0
same,"Plant response rating, Wheat",wheat [13]; [23],0
same,"Plant response rating, Wheat",wheat [13]; [24],0
same,"Plant response rating, Wheat",wheat [14]; [25],0
same,"Plant response rating, Wheat",wheat [14]; [26],0
same,"Plant response rating, Galium",galium; [23],0
same,"Plant response rating, Galium",galium; [24],0
same,"Plant response rating, Foxtail, Giant","foxtail, giant [15]; [25]",0
same,"Plant response rating, Foxtail, Giant","foxtail, giant [15]; [26]",0
same,"Plant response rating, Sedge, Umbrella","sedge, umbrella",0
same,"Plant response rating, Barnyardgrass",barnyardgrass,0
same,"Plant response rating, Corn",corn [16]; [25],0
same,"Plant response rating, Corn",corn [16]; [26],0
same,"Plant response rating, Goosegrass",goosegrass [17]; [23],0
same,"Plant response rating, Goosegrass",goosegrass [17]; [24],0
same,"Plant response rating, Foxtail, Giant","foxtail, giant [18]; [23]",0
same,"Plant response rating, Foxtail, Giant","foxtail, giant [18]; [24]",0
same,"Plant response rating, Blackgrass",blackgrass [19]; [23],0
same,"Plant response rating, Blackgrass",blackgrass [19]; [24],0
same,"Plant response rating, Oat, Wild","oat, wild [20]; [23]",0
same,"Plant response rating, Oat, Wild","oat, wild [20]; [24]",0
same,"Plant response rating, Kochia",kochia [21]; [25],0
same,"Plant response rating, Kochia",kochia [21]; [26],0
same,"Plant response rating, Horseweed",horseweed; [23],0
same,"Plant response rating, Horseweed",horseweed; [24],0
same,"Plant response rating, Rice",rice,0
same,"Plant response rating, Kochia",kochia [22]; [23],0
same,"Plant response rating, Kochia",kochia [22]; [24],0
CCc1ncn(-c2cccc(C(=O)N3C[C@H](C)Oc4c(C)cccc43)c2)n1 [Compound 71],"Plant response rating, Ducksalad",ducksalad,65
same,"Plant response rating, Soybean",soybean [1]; [27],100
same,"Plant response rating, Ryegrass, Italian","ryegrass, Italian [2]; [25]",100
same,"Plant response rating, Ryegrass, Italian","ryegrass, Italian [2]; [26]",100
same,"Plant response rating, Pigweed, Palmer","pigweed, palmer [3]; [27]",70
same,"Plant response rating, Ragweed",ragweed [4]; [27],80
same,"Plant response rating, Soybean",soybean [5]; [25],50
same,"Plant response rating, Soybean",soybean [5]; [26],90
same,"Plant response rating, Ryegrass, Italian","ryegrass, Italian [6]; [27]",100
same,"Plant response rating, Oat, Wild","oat, wild [7]; [25]",90
same,"Plant response rating, Oat, Wild","oat, wild [7]; [26]",90
same,"Plant response rating, Pigweed, Palmer","pigweed, palmer [8]; [25]",100
same,"Plant response rating, Pigweed, Palmer","pigweed, palmer [8]; [26]",100
same,"Plant response rating, Ragweed",ragweed [9]; [25],0
same,"Plant response rating, Ragweed",ragweed [9]; [26],90
same,"Plant response rating, Blackgrass",blackgrass [10]; [25],80
same,"Plant response rating, Blackgrass",blackgrass [10]; [26],90
same,"Plant response rating, Goosegrass",goosegrass [11]; [25],100
same,"Plant response rating, Goosegrass",goosegrass [11]; [26],100
same,"Plant response rating, Corn",corn [12]; [23],60
same,"Plant response rating, Corn",corn [12]; [27],90
same,"Plant response rating, Wheat",wheat [13]; [27],80
same,"Plant response rating, Wheat",wheat [14]; [25],30
same,"Plant response rating, Wheat",wheat [14]; [26],90
same,"Plant response rating, Galium",galium; [23],100
same,"Plant response rating, Galium",galium; [27],100
same,"Plant response rating, Foxtail, Giant","foxtail, giant [15]; [25]",100
same,"Plant response rating, Foxtail, Giant","foxtail, giant [15]; [26]",100
same,"Plant response rating, Sedge, Umbrella","sedge, umbrella",95
same,"Plant response rating, Barnyardgrass",barnyardgrass,0
same,"Plant response rating, Corn",corn [16]; [25],40
same,"Plant response rating, Corn",corn [16]; [26],60
same,"Plant response rating, Goosegrass",goosegrass [17]; [23],10
same,"Plant response rating, Goosegrass",goosegrass [17]; [27],50
same,"Plant response rating, Foxtail, Giant","foxtail, giant [18]; [23]",90
same,"Plant response rating, Foxtail, Giant","foxtail, giant [18]; [27]",90
same,"Plant response rating, Blackgrass",blackgrass [19]; [23],80
same,"Plant response rating, Blackgrass",blackgrass [19]; [24],90
same,"Plant response rating, Oat, Wild","oat, wild [20]; [27]",80
same,"Plant response rating, Kochia",kochia [21]; [25],80
same,"Plant response rating, Kochia",kochia [21]; [26],100
same,"Plant response rating, Horseweed",horseweed; [23],30
same,"Plant response rating, Horseweed",horseweed; [27],80
same,"Plant response rating, Rice",rice,0
same,"Plant response rating, Kochia",kochia [22]; [23],60
same,"Plant response rating, Kochia",kochia [22]; [27],90
CC(C)c1ncn(-c2ccc(O)c(C(=O)N3C[C@H](C)Oc4c(Cl)cccc43)c2)n1 [Compound 105],"Plant response rating, Ducksalad",ducksalad,0
same,Soybean plant response rating,soybean [1]; [28],70
same,"Plant response rating, Soybean",soybean [1]; [27],100
same,"Plant response rating, Ryegrass, Italian","ryegrass, Italian [2]; [25]",40
same,"Plant response rating, Ryegrass, Italian","ryegrass, Italian [2]; [26]",80
same,"Pigweed, Palmer plant response rating","pigweed, palmer [3]; [28]",40
same,"Plant response rating, Pigweed, Palmer","pigweed, palmer [3]; [27]",60
same,Ragweed plant response rating,ragweed [4]; [28],0
same,"Plant response rating, Ragweed",ragweed [4]; [27],0
same,"Plant response rating, Soybean",soybean [5]; [25],0
same,"Plant response rating, Soybean",soybean [5]; [26],0
same,"Ryegrass, Italian plant response rating","ryegrass, Italian [6]; [28]",0
same,"Plant response rating, Ryegrass, Italian","ryegrass, Italian [6]; [27]",20
same,"Plant response rating, Oat, Wild","oat, wild [7]; [25]",70
same,"Plant response rating, Oat, Wild","oat, wild [7]; [26]",70
same,"Plant response rating, Pigweed, Palmer","pigweed, palmer [8]; [25]",30
same,"Plant response rating, Pigweed, Palmer","pigweed, palmer [8]; [26]",90
same,"Plant response rating, Ragweed",ragweed [9]; [25],0
same,"Plant response rating, Ragweed",ragweed [9]; [26],0
same,"Plant response rating, Blackgrass",blackgrass [10]; [25],10
same,"Plant response rating, Blackgrass",blackgrass [10]; [26],20
same,"Plant response rating, Goosegrass",goosegrass [11]; [25],60
same,"Plant response rating, Goosegrass",goosegrass [11]; [26],100
same,Corn plant response rating,corn [12]; [28],20
same,"Plant response rating, Corn",corn [12]; [27],50
same,Wheat plant response rating,wheat [13]; [28],0
same,"Plant response rating, Wheat",wheat [13]; [27],10
same,"Plant response rating, Wheat",wheat [14]; [25],0
same,"Plant response rating, Wheat",wheat [14]; [26],10
same,Galium plant response rating,galium; [28],60
same,"Plant response rating, Galium",galium; [27],70
same,"Plant response rating, Foxtail, Giant","foxtail, giant [15]; [25]",70
same,"Plant response rating, Foxtail, Giant","foxtail, giant [15]; [26]",100
same,"Plant response rating, Sedge, Umbrella","sedge, umbrella",0
same,"Plant response rating, Barnyardgrass",barnyardgrass,0
same,"Plant response rating, Corn",corn [16]; [25],0
same,"Plant response rating, Corn",corn [16]; [26],0
same,Goosegrass plant response rating,goosegrass [17]; [28],0
same,"Plant response rating, Goosegrass",goosegrass [17]; [27],50
same,"Foxtail, Giant plant response rating","foxtail, giant [18]; [28]",20
same,"Plant response rating, Foxtail, Giant","foxtail, giant [18]; [27]",80
same,Blackgrass plant response rating,blackgrass [19]; [28],30
same,"Plant response rating, Blackgrass",blackgrass [19]; [27],30
same,"Oat, Wild plant response rating","oat, wild [20]; [28]",70
same,"Plant response rating, Oat, Wild","oat, wild [20]; [27]",70
same,"Plant response rating, Kochia",kochia [21]; [25],50
same,"Plant response rating, Kochia",kochia [21]; [26],90
same,Horseweed plant response rating,horseweed; [28],0
same,"Plant response rating, Horseweed",horseweed; [27],0
same,"Plant response rating, Rice",rice,0
same,Kochia plant response rating,kochia [22]; [28],90
same,"Plant response rating, Kochia",kochia [22]; [27],90
